# Test results reported in patent publication US9850183B2, “Conjugates derived from non-steroidal anti-inflammatory drugs and methods of use thereof in imaging” (Reiley Pharmaceuticals, Inc., priority 2014, dated 2017).
# Where two headings read alike, the source gives them in different places.
# Assays:
# COX-2 = biological target: T1, COX-2 (Mus musculus, UniProt Q05769); assay: Cell-based COX-2 assay (PGE2 in LPS/IFN-g stimulated RAW264.7 cells); settings: RAW264.7 murine macrophages, 1 μg/ml LPS and 10 U/ml IFN-g for 7 h, PGE2 readout
# T1 construct: endogenous in cells; host or cells: RAW264.7 murine macrophages, stimulated with LPS and IFN-g
# T1 sequence (Q05769 18-604): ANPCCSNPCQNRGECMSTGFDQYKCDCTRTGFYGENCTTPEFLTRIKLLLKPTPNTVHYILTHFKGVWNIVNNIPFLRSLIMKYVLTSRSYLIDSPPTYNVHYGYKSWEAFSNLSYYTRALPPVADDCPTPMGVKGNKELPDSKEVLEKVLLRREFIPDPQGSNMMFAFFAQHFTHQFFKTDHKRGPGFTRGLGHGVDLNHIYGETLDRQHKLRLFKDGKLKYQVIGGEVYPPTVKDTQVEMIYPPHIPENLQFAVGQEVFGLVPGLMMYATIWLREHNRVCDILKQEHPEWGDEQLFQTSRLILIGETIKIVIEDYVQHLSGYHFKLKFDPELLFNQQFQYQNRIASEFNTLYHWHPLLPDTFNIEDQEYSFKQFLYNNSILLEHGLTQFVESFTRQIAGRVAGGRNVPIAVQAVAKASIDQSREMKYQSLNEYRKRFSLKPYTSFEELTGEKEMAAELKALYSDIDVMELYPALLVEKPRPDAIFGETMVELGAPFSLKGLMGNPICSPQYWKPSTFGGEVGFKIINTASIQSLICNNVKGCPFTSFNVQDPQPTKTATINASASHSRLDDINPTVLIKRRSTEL
# Method: RAW264.7 murine macrophages were obtained from the Cell Bank of Shanghai Institute of Biochemistry and Cell Biology, Chinese Academy of Sciences (Shanghai, China) and cultured in Dulbecco's modified Eagle's medium containing 100 U/ml penicillin and 100 μg/ml streptomycin at 37° C. in 5% CO2.
# RAW264.7 cells were plated at a density of 2.5×10^5/ml cells in a 96-well plate with 0.1 ml of culture medium per well and cultured overnight. The cells were pre-incubated for 30 min with various doses of compounds and stimulated for 7 h with 1 μg/ml LPS and 10 U/ml IFN-g. The cell culture supernatants were collected immediately following treatment and centrifuged at 1,000 rpm for 5 min to remove the particulate matter. PGE2 was determined using a Prostaglandin E2 assay kit (catalog no. 62P2APEB; Cisbio Co.,). 10 μL of cell supernatant was transferred to a 384-well low volume plate (e.g. Corning® 3544), 5 μL of PGE2-d2 was added, followed by 5 μL anti-PGE2 Cryptate as a negative control. Replace the standard by 10 μL of diluent and PGE2-d2 by 5 μL of reconstitution buffer, Cal0 (for positive control), replace the standard by 10 μL of diluent. Incubate at 4° C. overnight. After centrifuging at 1,000 rpm for 1 min, the dual fluorescence emissions of 615 and 665 nm with a 320 nm excitation were measured using an Envision plate reader (Perkin Elmer, Shelton, Conn.). The results are expressed as the ratio of 665 nm/615 nm emissions.
# (§1) Dose-response curves were generated using XLFit (IDBS, Surrey, UK) or Prism (GraphPad Software, La Jolla, Calif., US) to calculate IC50 values for each compound tested.
# human COX-2 = biological target: T2, human COX-2 (Homo sapiens, UniProt P35354); assay: COX-2 enzyme assay (EIA kit, PGF2α readout); type: biochemical
# T2 construct: purchased Cayman Chemical Co., Ann Arbor, Mich., USA 701080
# T2 sequence (P35354 18-604): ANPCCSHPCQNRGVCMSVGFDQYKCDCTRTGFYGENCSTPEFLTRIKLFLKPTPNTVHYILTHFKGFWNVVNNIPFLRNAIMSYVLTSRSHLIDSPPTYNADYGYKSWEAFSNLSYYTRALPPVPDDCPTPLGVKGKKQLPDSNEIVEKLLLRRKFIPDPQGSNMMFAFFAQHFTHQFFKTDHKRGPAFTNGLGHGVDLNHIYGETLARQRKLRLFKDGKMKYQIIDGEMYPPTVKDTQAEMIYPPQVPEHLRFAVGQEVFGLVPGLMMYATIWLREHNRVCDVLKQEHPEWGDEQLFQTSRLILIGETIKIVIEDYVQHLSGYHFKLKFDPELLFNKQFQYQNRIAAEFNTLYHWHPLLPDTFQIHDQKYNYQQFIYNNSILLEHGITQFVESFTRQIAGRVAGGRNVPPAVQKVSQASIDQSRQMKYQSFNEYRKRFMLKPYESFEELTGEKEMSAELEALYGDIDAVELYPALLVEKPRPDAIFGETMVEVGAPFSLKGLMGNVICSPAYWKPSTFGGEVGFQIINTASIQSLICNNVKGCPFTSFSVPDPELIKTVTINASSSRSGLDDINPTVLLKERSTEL
# Method: (§2) The ability of compounds to inhibit ovine COX-1 and human COX-2 was determined using a commercially available enzyme immunoassay (EIA) kit (catalog no. 701090 (COX-1); 701080 (COX-2) Cayman Chemical Co., Ann Arbor, Mich., USA) according to the manufacturer's protocol. COX catalyzes the first step in the biosynthesis of AA to PGH2. PGF2α, produced from PGH2 by reduction with stannous chloride, was measured by EIA (ACE™ competitive EIA, Cayman Chemical, Ann Arbor, Mich., USA). Briefly, to a series of supplied reaction buffer solutions [960 μl 0.1 M Tris-HCl (pH 8.0) containing 5 mM EDTA and 2 mM phenol] with either COX-1 or COX-2 (10 μl) enzyme in the presence of heme (10 μl), 10 μl of various concentrations of test drug solutions were added. These solutions were incubated for 15 min at 37° C. and subsequently 10 μl AA solution (100 μM) was added. The COX reaction was stopped by the addition of 30 μl stannus chloride after 2 min, mixed immediately, supernatants were 2000 fold diluted. The produced PGF2α was measured by EIA. This assay is based on the competition between PGs and a PG-acetylcholinesterase conjugate (PG tracer) for a limited amount of PG antiserum. The amount of PG tracer that is able to bind to the PG antiserum is inversely proportional to the concentration of PGs in the wells since the concentration of the PG tracer is held at a constant while the concentration of PGs varies. The specific antiserum-PG complex bound to a mouse anti-rabbit IgG that had been previously attached to the well. The plate was washed to remove any unbound reagents and 200 μl Ellman's reagent (5,5′-dithiobis-(2-nitrobenzoic acid), which contains the substrate to acetylcholine esterase, was added to the well. The product of this enzymatic reaction generates a distinct yellow color that absorbs at 406 nm. The intensity of this color, determined by spectrophotometry, is proportional to the amount of PG tracer bound to the well, which is inversely proportional to the amount of PGs present in the well during the incubation. Percent inhibition was calculated by the comparison of the compounds treated to the various control incubations.
# as §1
# ovine COX-1 = biological target: T3, ovine COX-1 (Ovis aries, UniProt P05979); assay: biochemical
# T3 sequence (P05979 25-600): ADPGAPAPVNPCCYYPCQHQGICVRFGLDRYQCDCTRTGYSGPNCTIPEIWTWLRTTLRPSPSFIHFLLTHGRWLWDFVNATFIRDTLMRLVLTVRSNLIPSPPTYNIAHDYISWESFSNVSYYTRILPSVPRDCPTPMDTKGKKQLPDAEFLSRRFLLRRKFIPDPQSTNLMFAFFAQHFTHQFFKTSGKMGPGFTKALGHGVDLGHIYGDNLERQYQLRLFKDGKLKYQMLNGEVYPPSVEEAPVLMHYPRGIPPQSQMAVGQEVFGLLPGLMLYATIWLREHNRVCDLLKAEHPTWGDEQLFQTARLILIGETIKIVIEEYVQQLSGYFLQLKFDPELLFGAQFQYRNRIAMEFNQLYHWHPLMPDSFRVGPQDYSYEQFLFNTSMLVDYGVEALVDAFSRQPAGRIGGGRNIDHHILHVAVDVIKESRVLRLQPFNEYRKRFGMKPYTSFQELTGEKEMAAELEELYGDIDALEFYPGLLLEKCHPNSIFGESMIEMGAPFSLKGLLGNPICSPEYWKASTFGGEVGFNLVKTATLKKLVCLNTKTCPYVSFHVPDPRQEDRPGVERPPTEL
# Method: as §2, §1
# [1] = human COX-2 enzyme, EIA, 15 min pre-incubation at 37° C., read-out: COX-2 IC50 (μM) enzyme
# [2] = ovine COX-1 enzyme, EIA, read-out: COX-1 IC50 (μm) enzyme
SMILES,IC50 (COX-2),IC50 (human COX-2; [1]),IC50 (ovine COX-1; [2]),IC50 (human COX-2),IC50 (ovine COX-1)
COc1ccc2c(c1)c(CC(=O)NCCCCCCNC(=O)[c-]1cccc1)c(C)n2C(=O)c1ccc(Cl)cc1.[C-]#[O+].[C-]#[O+].[C-]#[O+].[Re+] [Compound 242],0.4 µM,0.3 µM,> 30000 nM,–,–
COc1ccc2c(c1)c(CC(=O)NCCCCCCCNC(=O)[c-]1cccc1)c(C)n2C(=O)c1ccc(Cl)cc1.[C-]#[O+].[C-]#[O+].[C-]#[O+].[Re+] [Compound 246],0.2 µM,0.1 µM,> 30000 nM,–,–
COc1ccc2c(c1)c(CC(=O)NCCCCCC[N+]13CC[S][Re-]14(=[O])[S]CC[N]4C(=O)C3)c(C)n2C(=O)c1ccc(Cl)cc1 (centres unmarked) [Compound 260],0.2 µM,0.3 µM,> 30000 nM,–,–
COc1ccc2c(c1)c(CC(=O)NCCCS(=O)(=O)CCC[N+]13CC[S][Re-]14(=[O])[S]CC[N]4C(=O)C3)c(C)n2C(=O)c1ccc(Cl)cc1 (centres unmarked) [Compound 268],> 10 µM,> 30 µM,–,–,–
COc1ccc2c(c1)c(CC(=O)NCCOCCOCC[N+]13CC[S][Re-]14(=[O])[S]CC[N]4C(=O)C3)c(C)n2C(=O)c1ccc(Cl)cc1 (centres unmarked) [Compound 269],0.9 µM,0.5 µM,–,–,–
COc1ccc2c(c1)c(CC(=O)NCCCCCC[N+]13CC[S][Re-]14(=[O])[S]CC[N]4CC3)c(C)n2C(=O)c1ccc(Cl)cc1 (centres unmarked) [Compound 275],0.2 µM,0.7 µM,> 30000 nM,–,–
COc1ccc2c(c1)c(CC(=O)NCCCCCCC[N+]13CC[S][Re-]14(=[O])[S]CC[N]4CC3)c(C)n2C(=O)c1ccc(Cl)cc1 (centres unmarked) [Compound 305],0.1 µM,–,–,0.3 µM,> 30000 nM
COc1ccc2c(c1)c(CC(=O)NCCC(C)(C)CC[N+]13CC[S][Re-]14(=[O])[S]CC[N]4CC3)c(C)n2C(=O)c1ccc(Cl)cc1 (centres unmarked) [Compound 307],0.5 µM,> 30 µM,–,–,–
COc1ccc2c(c1)c(CC(=O)NCCCCCNC(=O)c1ccc[cH-]1)c(C)n2C(=O)c1ccc(Cl)cc1.[C-]#[O+].[C-]#[O+].[C-]#[O+].[Re+] [Compound 308],0.2 µM,0.9 µM,–,–,–
COc1ccc2c(c1)c(CC(=O)NCCC(C)(C)CCNC(=O)c1ccc[cH-]1)c(C)n2C(=O)c1ccc(Cl)cc1.[C-]#[O+].[C-]#[O+].[C-]#[O+].[Re+] [Compound 309],0.3 µM,0.5 µM,–,–,–
COc1ccc2c(c1)c(CC(=O)NCCCOCCCNC(=O)c1ccc[cH-]1)c(C)n2C(=O)c1ccc(Cl)cc1.[C-]#[O+].[C-]#[O+].[C-]#[O+].[Re+] [Compound 310],0.2 µM,> 30 µM,–,–,–
COc1ccc2c(c1)c(CC(=O)NCCCCC(C)(C)NC(=O)c1ccc[cH-]1)c(C)n2C(=O)c1ccc(Cl)cc1.[C-]#[O+].[C-]#[O+].[C-]#[O+].[Re+] [Compound 312],0.4 µM,0.1 µM,–,–,–
COc1ccc2c(c1)c(CC(=O)N[C@H](C)CCCCC[N+]13CC[S][Re-]14(=[O])[S]CC[N]4C(=O)C3)c(C)n2C(=O)c1ccc(Cl)cc1 (some centres unmarked) [Compound 328],0.1 µM,0.6 µM,–,–,–
COc1ccc2c(c1)c(CC(=O)NCCC=CCC[N+]13CC[S][Re-]14(=[O])[S]CC[N]4C(=O)C3)c(C)n2C(=O)c1ccc(Cl)cc1 (centres unmarked) [Compound 341],0.3 µM,0.8 µM,–,–,–
[2H]C([2H])([2H])Oc1ccc2c(c1)c(CC(=O)NCCCCCC[N+]13CC[S][Re-]14(=[O])[S]CC[N]4C(=O)C3)c(C)n2C(=O)c1ccc(Cl)cc1 (centres unmarked) [Compound 346],0.2 µM,0.3 µM,–,–,–
COc1ccc2c(c1)c(CC(=O)NCCCCCC[N+]13CC[S][Re-]14(=[O])[S]CC[N]4C(=O)C3)c(C(F)(F)F)n2C(=O)c1ccc(Cl)cc1 (centres unmarked) [Compound 351],0.4 µM,> 30 µM,–,–,–
COc1ccc2c(c1)c(CCNC(=O)CCCCC[N+]13CC[S][Re-]14(=[O])[S]CC[N]4C(=O)C3)c(C)n2C(=O)c1ccc(Cl)cc1 (centres unmarked) [Compound 359],0.2 µM,0.6 µM,–,–,–
NS(=O)(=O)c1ccc(-n2nc(CNC(=O)c3ccc[cH-]3)cc2-c2ccc(F)cc2)cc1.[C-]#[O+].[C-]#[O+].[C-]#[O+].[Re+] [Compound 365],1.1 µM,7.9 µM,–,–,–
NS(=O)(=O)c1ccc(-n2nc(CNC(=O)CCCCC[N+]34CC[S][Re-]35(=[O])[S]CC[N]5C(=O)C4)cc2-c2ccc(F)cc2)cc1 (centres unmarked) [Compound 367],> 10 µM,–,–,4.5 µM,–
COc1ccc2c(c1)c(CCNCc1ccccn1)c(C)n2C(=O)c1ccc(Cl)cc1 [Compound 369],–,–,> 30000 nM,–,–
